This is an account of results in article PMC2783175 (Archives of biochemistry and biophysics, 2009).

Usually IC50 stands for the concentration that gives 50% inhibition. Low values mean greater potency, high ones weaker potency.

The target of the assay is T1, Cystathionine β-synthase (CBS) (Homo sapiens, UniProt P35520).
T1 sequence (P35520 1-408): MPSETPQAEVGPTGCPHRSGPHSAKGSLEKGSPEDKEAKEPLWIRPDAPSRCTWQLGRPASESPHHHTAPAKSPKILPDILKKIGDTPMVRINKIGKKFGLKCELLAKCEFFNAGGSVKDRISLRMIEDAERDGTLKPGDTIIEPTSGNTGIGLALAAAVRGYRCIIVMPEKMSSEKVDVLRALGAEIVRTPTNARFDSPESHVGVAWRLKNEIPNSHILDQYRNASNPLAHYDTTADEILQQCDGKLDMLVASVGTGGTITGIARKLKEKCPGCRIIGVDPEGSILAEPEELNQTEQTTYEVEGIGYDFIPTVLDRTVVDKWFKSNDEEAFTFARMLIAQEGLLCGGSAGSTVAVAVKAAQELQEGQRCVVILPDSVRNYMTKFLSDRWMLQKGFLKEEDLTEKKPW
In words: Loss of purified enzyme activity. It counts as biochemical.

In the case of `O=NOO` [peroxynitrite, oxoperoxonitrate(1-)], the IC50 was approximately 150 µM.
